Test results: patent publication US20240409536A1, “COMPOUNDS AND METHODS FOR MODULATING SPLICING” (REMIX THERAPEUTICS INC., priority 2021, published 2024)

Key:
K562 cells = experiment: Cell Titer Glo 2.0 cell viability assay in K562 cells; conditions: 72 hours
MYB mRNA [1] = experiment: Gene panel canonical junction qPCR assay, MYB CJ mRNA decrease; format: cell-based, human; conditions: Homo sapiens, canonical junction qPCR, read-out: MYB IC50 (decrease in CJ mRNA levels)
Method in brief: (§1)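 A673 or K562 cells were treated with compound, and lysates underwent cDNA synthesis and qPCR with a CY5 5′-nuclease probe or primer spanning the canonical exon junction. ΔCt versus GAPDH, GUSB or PPIA was normalized to DMSO (2^(−ΔΔCt)), converted to percentage response and fitted four-parameter logistic for IC50.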

HTT mRNA = experiment: Gene panel canonical junction qPCR assay, HTT CJ mRNA decrease; format: cell-based, human; conditions: Homo sapiens, canonical junction qPCR, read-out: HTT IC50 (decrease in CJ mRNA levels)
Method in brief: as §1

MYB mRNA [2] = experiment: Splicing RT-qPCR assay, MYB canonical (CJ) and alternative (AJ) junction mRNA; format: cell-based; conditions: Homo sapiens, A673 or K562 cells, 24 hours; for IC50: decrease in canonical junction mRNA; for AC50: increase in alternative junction mRNA
Method in brief: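 A673 or K562 cells were treated 24 h at 37 °C with compounds in an 11-point 3-fold dilution series (top final 10 uM, DMSO ≤0.25%). Lysates were analysed by one-step RT-qPCR for canonical (CJ) and alternative-exon (AJ) junction isoforms, normalized to GAPDH, GUSB or PPIA.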

Structure (SMILES) | Viability (K562 cells) | IC50 (MYB mRNA [1]) [nM] | IC50 (HTT mRNA) [nM] | IC50 (MYB mRNA [2]) [nM] | AC50 (MYB mRNA [2]) [nM]
CN[C@@H]1CCN(c2ccc(C(=O)Nc3cc(F)c4nc(C)cn4c3)c3nccnc23)C1 (single isomer, unassigned) [Compound 193, N-{8-fluoro-2-methylimidazo[1,2-a]pyridin-6-yl}-8-[3-(methylamino)pyrrolidin-1-yl]quinoxaline-5-carboxamide] | A (A represents <100 nM) | 100 to 1000 | > 10000 | 100 to 1000 | 100 to 1000
CN[C@H]1CCN(c2ccc(C(=O)Nc3cc(F)c4nc(C)cn4c3)c3nccnc23)C1 (single isomer, unassigned) [Compound 194, N-{8-fluoro-2-methylimidazo[1,2-a]pyridin-6-yl}-8-[3-(methylamino)pyrrolidin-1-yl]quinoxaline-5-carboxamide] | A (A represents <100 nM) | < 100 | 1000 to 10000 | < 100 | 100 to 1000
Cc1cn2nc(NC(=O)c3ccc(N4CCNCC4)c4ccnnc34)cc(C)c2n1 [Compound 100] | B (B represents 100-1000 nM) | 100 to 1000 | 100 to 1000 | 100 to 1000 | 100 to 1000
Cc1cn2cc(NC(=O)c3ccc(N4CCNC5(CC5)C4)c4ccnnc34)cc(F)c2n1 [Compound 105] | B (B represents 100-1000 nM) | 100 to 1000 | 1000 to 10000 | 100 to 1000 | 100 to 1000
Cc1cn2cc(NC(=O)c3ccc(N4C[C@H]5CC[C@@H](C4)N5)c4ccnnc34)cc(F)c2n1 [Compound 108] | – | 100 to 1000 | 1000 to 10000 | 100 to 1000 | 100 to 1000
Cc1cn2nc(NC(=O)c3ccc(N4CCNCC4)c4ccnnc34)cc2c(C)n1 [Compound 123] | C (C represents 1000-9999 nM) | 1000 to 10000 | 1000 to 10000 | 1000 to 10000 | 1000 to 10000
Cc1cn2cc(NC(=O)c3ccc(N4CCNCC4)c4ccnnc34)cc(C)c2n1 [Compound 125] | B (B represents 100-1000 nM) | 100 to 1000 | 1000 to 10000 | 100 to 1000 | 100 to 1000
O=C(Nc1cn[nH]c1)c1ccc(N2CCNCC2)c2ccnnc12 [Compound 126] | – | > 10000 | > 10000 | > 10000 | > 10000
Cc1cn2cc(NC(=O)c3ccc(N4CCN(C)CC4)c4ccnnc34)cc(F)c2n1 [Compound 127] | C (C represents 1000-9999 nM) | 100 to 1000 | 1000 to 10000 | 100 to 1000 | 1000 to 10000
Cc1cn2cc(NC(=O)c3ccc(N4CCNC(C)C4)c4ccnnc34)cc(F)c2n1 (stereo not drawn) [Compound 128] | B (B represents 100-1000 nM) | < 100 | 100 to 1000 | < 100 | < 100
CCC1CN(c2ccc(C(=O)Nc3cc(F)c4nc(C)cn4c3)c3nnccc23)CCN1 (stereo not drawn) [Compound 130] | B (B represents 100-1000 nM) | < 100 | 1000 to 10000 | < 100 | 100 to 1000
Cc1cn2cc(NC(=O)c3ccc(N4CC5(CNC5)C4)c4ccnnc34)cc(F)c2n1 [Compound 131] | B (B represents 100-1000 nM) | 100 to 1000 | 1000 to 10000 | 100 to 1000 | 100 to 1000
Cc1cn2cc(NC(=O)c3ccc(N4CCC(N5CCCC5)C4)c4ccnnc34)cc(F)c2n1 (stereo not drawn) [Compound 133] | C (C represents 1000-9999 nM) | 1000 to 10000 | 1000 to 10000 | 1000 to 10000 | 100 to 1000
Cc1cn2cc(NC(=O)c3ccc(N4CCC(N(C)C)C4)c4ccnnc34)cc(F)c2n1 (stereo not drawn) [Compound 134] | B (B represents 100-1000 nM) | 100 to 1000 | 1000 to 10000 | 100 to 1000 | 100 to 1000
Cc1cn2cc(NC(=O)c3ccc(N4CCC(N(C)C)CC4)c4ccnnc34)cc(F)c2n1 [Compound 137] | A (A represents <100 nM) | < 100 | 100 to 1000 | < 100 | < 100
Cc1cn2cc(NC(=O)c3ccc(N4CCC(NC(C)(C)C)CC4)c4ccnnc34)cc(F)c2n1 [Compound 138] | C (C represents 1000-9999 nM) | 100 to 1000 | 1000 to 10000 | 100 to 1000 | 100 to 1000
Cc1cn2cc(NC(=O)c3ccc(C4CCN(C)CC4)c4ccnnc34)cc(F)c2n1 [Compound 140] | B (B represents 100-1000 nM) | 100 to 1000 | 1000 to 10000 | 100 to 1000 | 100 to 1000
CCN1CCC(c2ccc(C(=O)Nc3cc(F)c4nc(C)cn4c3)c3nnccc23)CC1 [Compound 141] | C (C represents 1000-9999 nM) | 100 to 1000 | 1000 to 10000 | 100 to 1000 | 100 to 1000
Cc1cn2cc(NC(=O)c3ccc(N4CCN[C@H](C)C4)c4ccnnc34)cc(F)c2n1 [Compound 146] | A (A represents <100 nM) | < 100 | 100 to 1000 | < 100 | < 100
Cc1cn2cc(NC(=O)c3ccc(N4CCN(C)[C@H](C)C4)c4ccnnc34)cc(F)c2n1 [Compound 149] | B (B represents 100-1000 nM) | < 100 | 1000 to 10000 | < 100 | 100 to 1000
Cc1cn2cc(NC(=O)c3ccc(N4CCN(C)[C@@H](C)C4)c4ccnnc34)cc(F)c2n1 [Compound 150] | B (B represents 100-1000 nM) | 100 to 1000 | 1000 to 10000 | 100 to 1000 | 100 to 1000
CC[C@@H]1CN(c2ccc(C(=O)Nc3cc(F)c4nc(C)cn4c3)c3nnccc23)CCN1 [Compound 151] | B (B represents 100-1000 nM) | < 100 | 1000 to 10000 | < 100 | 100 to 1000
CC[C@H]1CN(c2ccc(C(=O)Nc3cc(F)c4nc(C)cn4c3)c3nnccc23)CCN1 [Compound 152] | B (B represents 100-1000 nM) | 100 to 1000 | 1000 to 10000 | 100 to 1000 | 100 to 1000
Cc1cn2cc(NC(=O)c3ccc(N4CCN5CCC[C@@H]5C4)c4ccnnc34)cc(F)c2n1 [Compound 153] | B (B represents 100-1000 nM) | < 100 | 100 to 1000 | < 100 | < 100
Cc1cn2cc(NC(=O)c3ccc(N(C)[C@@H]4C[C@H]5CC[C@@H](C4)N5)c4ccnnc34)cc(F)c2n1 [Compound 156] | – | 1000 to 10000 | > 10000 | 1000 to 10000 | 1000 to 10000
Cc1cn2cc(NC(=O)c3ccc(N4C[C@@H](C)N[C@@H](C)C4)c4nccnc34)cc(F)c2n1 [Compound 186, 8-(3,5-dimethylpiperazin-1-yl)-N-{8-fluoro-2-methylimidazo[1,2-a]pyridin-6-yl}quinoxaline-5-carboxamide] | – | < 100 | 1000 to 10000 | < 100 | < 100
CNC1CCN(c2ccc(C(=O)Nc3cc(F)c4nc(C)cn4c3)c3nc(OC)cnc23)C1 (stereo not drawn) [Compound 202, N-{8-fluoro-2-methylimidazo[1,2-a]pyridin-6-yl}-3-methoxy-8-[3-(methylamino)pyrrolidin-1-yl]quinoxaline-5-carboxamide; bis(trifluoroacetic acid)] | A (A represents <100 nM) | – | > 10000 | – | 100 to 1000
